Several values for one entry are separate records, joined by “and”; a condition that tells them apart may be missing. Equal values may be shown once.
Columns and labels:
Format in all cases: functional
HCC 2998 = assay: Growth inhibition of human HCC 2998 cells assessed as growth percentage at 0.01 uM incubated for 48 hrs by sulforhodamine B assay relative to control; conditions: read-out: Activity
MOLT-4 = assay: Growth inhibition of human MOLT-4 cells assessed as growth percentage at 10 uM incubated for 48 hrs by sulforhodamine B assay relative to control; conditions: read-out: Activity
LOX IMVI [1] = assay: Growth inhibition of human LOX IMVI cells assessed as growth percentage at 0.1 uM incubated for 48 hrs by sulforhodamine B assay relative to control; conditions: read-out: Activity
OVCAR-4 = assay: Growth inhibition of human OVCAR-4 cells assessed as growth percentage at 0.1 uM incubated for 48 hrs by sulforhodamine B assay relative to control; conditions: read-out: Activity
OVCAR-8 [2] = assay: Growth inhibition of human OVCAR-8 cells assessed as growth percentage at 0.1 uM incubated for 48 hrs by sulforhodamine B assay relative to control; conditions: read-out: Activity
HOP-62 [3] = assay: Growth inhibition of human HOP-62 cells assessed as growth percentage at 100 uM incubated for 48 hrs by sulforhodamine B assay relative to control; conditions: read-out: Activity
COLO 205 = assay: Growth inhibition of human COLO 205 cells assessed as growth percentage at 10 uM incubated for 48 hrs by sulforhodamine B assay relative to control; conditions: read-out: Activity
SK-MEL-5 [4] = assay: Growth inhibition of human SK-MEL-5 cells assessed as growth percentage at 100 uM incubated for 48 hrs by sulforhodamine B assay relative to control; conditions: read-out: Activity
OVCAR-8 [5] = assay: Growth inhibition of human OVCAR-8 cells assessed as growth percentage at 10 uM incubated for 48 hrs by sulforhodamine B assay relative to control; conditions: read-out: Activity
NCI-H522 [6] = assay: Growth inhibition of human NCI-H522 cells assessed as growth percentage at 1 uM incubated for 48 hrs by sulforhodamine B assay relative to control; conditions: read-out: Activity
NCI-H226 = assay: Growth inhibition of human NCI-H226 cells incubated for 48 hrs by sulforhodamine B assay
MDA-MB-468 = assay: Growth inhibition of human MDA-MB-468 cells assessed as growth percentage at 10 uM incubated for 48 hrs by sulforhodamine B assay relative to control; conditions: read-out: Activity
SF-295 = assay: Growth inhibition of human SF-295 cells assessed as growth percentage at 0.1 uM incubated for 48 hrs by sulforhodamine B assay relative to control; conditions: read-out: Activity
A498 [7] = assay: Growth inhibition of human A498 cells assessed as growth percentage at 0.1 uM incubated for 48 hrs by sulforhodamine B assay relative to control; conditions: read-out: Activity
A498 [8] = assay: Growth inhibition of human A498 cells assessed as growth percentage at 0.01 uM incubated for 48 hrs by sulforhodamine B assay relative to control; conditions: read-out: Activity
CAKI-1 [9] = assay: Growth inhibition of human CAKI-1 cells assessed as growth percentage at 0.01 uM incubated for 48 hrs by sulforhodamine B assay relative to control; conditions: read-out: Activity
RXF 393 [10] = assay: Growth inhibition of human RXF 393 cells incubated for 48 hrs by sulforhodamine B assay
SK-MEL-5 [11] = assay: Growth inhibition of human SK-MEL-5 cells assessed as growth percentage at 0.1 uM incubated for 48 hrs by sulforhodamine B assay relative to control; conditions: read-out: Activity
NCI-H23 = assay: Growth inhibition of human NCI-H23 cells assessed as growth percentage at 10 uM incubated for 48 hrs by sulforhodamine B assay relative to control; conditions: read-out: Activity
UACC-257 = assay: Growth inhibition of human UACC-257 cells assessed as growth percentage at 100 uM incubated for 48 hrs by sulforhodamine B assay relative to control; conditions: read-out: Activity
U-251 = assay: Growth inhibition of human U-251 cells assessed as growth percentage at 10 uM incubated for 48 hrs by sulforhodamine B assay relative to control; conditions: read-out: Activity
BT-549 [12] = assay: Growth inhibition of human BT-549 cells assessed as growth percentage at 100 uM incubated for 48 hrs by sulforhodamine B assay relative to control; conditions: read-out: Activity
LOX IMVI [13] = assay: Growth inhibition of human LOX IMVI cells assessed as growth percentage at 10 uM incubated for 48 hrs by sulforhodamine B assay relative to control; conditions: read-out: Activity
SF-268 [14] = assay: Growth inhibition of human SF-268 cells assessed as growth percentage at 10 uM incubated for 48 hrs by sulforhodamine B assay relative to control; conditions: read-out: Activity
786-0 = assay: Growth inhibition of human 786-0 cells assessed as growth percentage at 1 uM incubated for 48 hrs by sulforhodamine B assay relative to control; conditions: read-out: Activity
NCI-H522 [15] = assay: Growth inhibition of human NCI-H522 cells assessed as growth percentage at 0.01 uM incubated for 48 hrs by sulforhodamine B assay relative to control; conditions: read-out: Activity
RXF 393 [16] = assay: Growth inhibition of human RXF 393 cells assessed as growth percentage at 0.01 uM incubated for 48 hrs by sulforhodamine B assay relative to control; conditions: read-out: Activity
SNB-75 = assay: Growth inhibition of human SNB-75 cells assessed as growth percentage at 100 uM incubated for 48 hrs by sulforhodamine B assay relative to control; conditions: read-out: Activity
HCT-116 = assay: Growth inhibition of human HCT-116 cells assessed as growth percentage at 0.1 uM incubated for 48 hrs by sulforhodamine B assay relative to control; conditions: read-out: Activity
T47D = assay: Growth inhibition of human T47D cells assessed as growth percentage at 0.01 uM incubated for 48 hrs by sulforhodamine B assay relative to control; conditions: read-out: Activity
Malme-3M = assay: Growth inhibition of human Malme-3M cells assessed as growth percentage at 100 uM incubated for 48 hrs by sulforhodamine B assay relative to control; conditions: read-out: Activity
OVCAR-3 = assay: Growth inhibition of human OVCAR-3 cells incubated for 48 hrs by sulforhodamine B assay; conditions: Homo sapiens
HOP-62 [17] = assay: Growth inhibition of human HOP-62 cells assessed as growth percentage at 1 uM incubated for 48 hrs by sulforhodamine B assay relative to control; conditions: read-out: Activity
BT-549 [18] = assay: Growth inhibition of human BT-549 cells incubated for 48 hrs by sulforhodamine B assay
OVCAR-8 [19] = assay: Growth inhibition of human OVCAR-8 cells assessed as growth percentage at 100 uM incubated for 48 hrs by sulforhodamine B assay relative to control; conditions: read-out: Activity
CAKI-1 [20] = assay: Growth inhibition of human CAKI-1 cells assessed as growth percentage at 1 uM incubated for 48 hrs by sulforhodamine B assay relative to control; conditions: read-out: Activity
SF-268 [21] = assay: Growth inhibition of human SF-268 cells assessed as growth percentage at 0.1 uM incubated for 48 hrs by sulforhodamine B assay relative to control; conditions: read-out: Activity
PC-3 = assay: Growth inhibition of human PC-3 cells assessed as growth percentage at 1 uM incubated for 48 hrs by sulforhodamine B assay relative to control; conditions: read-out: Activity
UO-31 = assay: Growth inhibition of human UO-31 cells assessed as growth percentage at 0.01 uM incubated for 48 hrs by sulforhodamine B assay relative to control; conditions: read-out: Activity

SMILES: Nc1nc2[nH]c(CN3CCN(c4cc(Cl)cc(Cl)c4)CC3)c(CN3CCN(c4cc(Cl)cc(Cl)c4)CC3)c2c(=O)[nH]1
- growth at 0.01 µM (HCC 2998): 106%
- growth at 10 µM (MOLT-4): 23.6%
- growth at 0.1 µM (LOX IMVI [1]): 99%
- growth at 0.1 µM (OVCAR-4): 95%
- growth at 0.1 µM (OVCAR-8 [2]): 97%
- growth at 100 µM (HOP-62 [3]): -38%
- growth at 10 µM (COLO 205): 10.9%
- growth at 100 µM (SK-MEL-5 [4]): -61%
- growth at 10 µM (OVCAR-8 [5]): 40.6%
- growth at 1 µM (NCI-H522 [6]): 91%
- GI50 (NCI-H226; 48 h): 1.58 µM and 15.8 µM
- CC50 (NCI-H226; 48 h, read-out: LC50 (the source's name)): > 100 µM
- TGI (NCI-H226; Homo sapiens, NCI-H226): 5.37 µM
- growth at 10 µM (MDA-MB-468): 40.1%
- growth at 0.1 µM (SF-295): 93%
- growth at 0.1 µM (A498 [7]): 82%
- growth at 0.01 µM (A498 [8]): 90%
- growth at 0.01 µM (CAKI-1 [9]): 87%
- GI50 (RXF 393 [10]): 1.58 µM
- TGI (RXF 393 [10]): 3.07 µM
- growth at 0.1 µM (SK-MEL-5 [11]): 98%
- growth at 10 µM (NCI-H23): 85.7%
- growth at 100 µM (UACC-257): -57%
- growth at 10 µM (U-251): 36.6%
- growth at 100 µM (BT-549 [12]): -37%
- growth at 10 µM (LOX IMVI [13]): 26.3%
- growth at 10 µM (SF-268 [14]): 81.2%
- growth at 1 µM (786-0): 82%
- growth at 0.01 µM (NCI-H522 [15]): 95%
- growth at 0.01 µM (RXF 393 [16]): 95%
- growth at 100 µM (SNB-75): -76%
- growth at 0.1 µM (HCT-116): 99%
- growth at 0.01 µM (T47D): 91%
- growth at 100 µM (Malme-3M): -42%
- TGI (OVCAR-3; OVCAR-3): 3.38 µM
- GI50 (OVCAR-3; OVCAR-3, 48 h): 1.81 µM
- CC50 (OVCAR-3; OVCAR-3, read-out: LC50 (the source's name)): 6.28 µM
- growth at 1 µM (HOP-62 [17]): 85%
- GI50 (BT-549 [18]): 1.72 µM
- TGI (BT-549 [18]): 3.76 µM
- growth at 100 µM (OVCAR-8 [19]): -44%
- growth at 1 µM (CAKI-1 [20]): 91%
- growth at 0.1 µM (SF-268 [21]): 102%
- growth at 1 µM (PC-3): 86%
- growth at 0.01 µM (UO-31): 96%
